Experimental data: US20260069552A1, “Methods of Providing a Cooling Sensation to Skin Afflicted with Eczema” (Kenvue Brands LLC, priority 2022, published 2026)

System: Staphylococcus epidermidis (ATCC 12228)
Test: In vitro bacteria competition assay (co-culture)
Assay type: cell-based
Settings: 1:1 co-culture with S. aureus in Nutrient Broth, 24 hours aerobic, CFU/mL; versus untreated; w/v % as in label; n=3
Procedure: In vitro bacteria competition assay evaluated Staphylococcus epidermidis (ATCC 12228, skin health associated strain) and Staphylococcus aureus (ATCC 6538, human lesion isolate) co-culture in the presence of test materials. Percentages are w/v % in liquid medium (Nutrient Broth, Culture Media and Supplies Inc.) To mimic the microenvironment of the skin surface, an aerobic, co-culture system of S. epidermidis and S. aureus was established. 50 μL S. epidermidis and 50 μL S. aureus (a 1:1 ratio) were inoculated (50 μL at approximately 5.0×10^6 CFU/mL each) in Nutrient Broth and in the presence of the test materials as specified in Table 14 below. [table] Test groups were incubated aerobically for 24 hours (n=3 per test group) After 24 hours, each test group was plated onto agar and incubated aerobically for 24 hours […]. After incubation, colonies were counted, and CFU/mL calculated. S. epidermidis and S. aureus colonies were differentiated on agar (Tryptic Soy Agar+5% sheep's blood, BD Diagnostics) based on representative morphology.

## CC(O)C(=O)O (stereo not shown) [Lactic Acid (1.1%), Lactic acid]
  S. epidermidis growth in bacteria competition assay: inhibited
